Data as given in patent US11850286B2, “Sulfamide linker, conjugates thereof, and methods of preparation” (priority 2014, dated 2023).

Assay: Determination of HPLC retention time (RP-HPLC, polarity)
Format: physicochemical
Protocol: Samples of compounds 19-38 were injected on an HPLC system equipped with an Phenomenex Luna C18(2) 5μ, 150×4.6 mm, 100 Å column and eluted with either a gradient of 10% MeCN (0.1% TFA)/90% water (0.1% TFA) to 90% MeCN (0.1% TFA)/10% water (0.1% TFA) or a gradient of 10% MeCN/90% 10 mM potassium phosphate buffer pH 7.4 to 90% MeCN/10% 10 mM potassium phosphate buffer pH 7.4. The retention times obtained for these compounds are depicted in Table 3.

[1] = RP-HPLC C18, MeCN/10 mM potassium phosphate buffer pH 7.4 gradient
[2] = RP-HPLC C18, MeCN/water gradient with 0.1% TFA

Compound | retention time [1] [min] | retention time [2] [min]
COc1cc2cc(c1Cl)N(C)C(=O)C[C@H](OC(=O)[C@H](C)N(C)C(=O)CCCCCNC(=O)OCc1ccc(NC(=O)[C@H](CCCNC(N)=O)NC(=O)[C@@H](NC(=O)OCCN(CCOC(=O)N[C@H](C(=O)N[C@@H](CCCNC(N)=O)C(=O)Nc3ccc(COC(=O)NCCCCCC(=O)N(C)[C@@H](C)C(=O)O[C@H]4CC(=O)N(C)c5cc(cc(OC)c5Cl)C/C(C)=C/C=C/[C@@H](OC)[C@@]5(O)C[C@H](OC(=O)N5)[C@@H](C)[C@@H]5O[C@@]45C)cc3)C(C)C)S(=O)(=O)NC(=O)OCC3C4CCC#CCCC43)C(C)C)cc1)[C@]1(C)O[C@H]1[C@H](C)[C@@H]1C[C@@](O)(NC(=O)O1)[C@H](OC)/C=C/C=C(\C)C2 (some centres unmarked) [Compound 37] | 10.5 | 11.2
O=C(CCCCCCNC(=O)OCC1C2CCC#CCCC21)NS(=O)(=O)NCc1ccccc1 (centres unmarked) [Compound 20] | 9.6 | 11.6
COc1cc2cc(c1Cl)N(C)C(=O)C[C@H](OC(=O)[C@H](C)N(C)C(=O)CCCCCNC(=O)CCOCCOCCOCCOCCNC(=O)OCC1C3CCC#CCCC31)[C@]1(C)O[C@H]1[C@H](C)[C@@H]1C[C@@](O)(NC(=O)O1)[C@H](OC)/C=C/C=C(\C)C2 (some centres unmarked) [Compound 30] | 10.6 | 10.5
COc1cc2cc(c1Cl)N(C)C(=O)C[C@H](OC(=O)[C@H](C)N(C)C(=O)CCCCCNC(=O)OCc1ccc(NC(=O)[C@H](CCCNC(N)=O)NC(=O)[C@@H](NC(=O)OCCOCCNS(=O)(=O)NC(=O)OCC3C4CCC#CCCC43)C(C)C)cc1)[C@]1(C)O[C@H]1[C@H](C)[C@@H]1C[C@@](O)(NC(=O)O1)[C@H](OC)/C=C/C=C(\C)C2 (some centres unmarked) [Compound 36] | 9.3 | 10.4
CN(C(=O)OCCCCCNC(=O)OCC1C2CCC#CCCC21)S(=O)(=O)NCc1ccccc1 (centres unmarked) [Compound 22] | 12.6 | 12.7
O=C(NCCCCCOC(=O)NS(=O)(=O)NCc1ccccc1)OCC1C2CCC#CCCC21 (centres unmarked) [Compound 21] | 9.2 | 11.6
O=C(CCCCCCNC(=O)OCC1C2CCC#CCCC21)NCc1ccccc1 (centres unmarked) [Compound 19, BCN-Heptanoic Acid Benzylamide] | 11.4 | 11.4
COc1cc2cc(c1Cl)N(C)C(=O)C[C@H](OC(=O)[C@H](C)N(C)C(=O)CCCCCNC(=O)CCOCCOCCOCCOCCOCCOCCOCCOCCOCCOCCOCCOCCNC(=O)OCC1C3CCC#CCCC31)[C@]1(C)O[C@H]1[C@H](C)[C@@H]1C[C@@](O)(NC(=O)O1)[C@H](OC)/C=C/C=C(\C)C2 (some centres unmarked) [Compound 31] | 10.1 | 10.1
COc1cc2cc(c1Cl)N(C)C(=O)C[C@H](OC(=O)[C@H](C)N(C)C(=O)CCCCCNC(=O)OCc1ccc(NC(=O)[C@H](CCCNC(N)=O)NC(=O)[C@@H](NC(=O)OCCN(CCOC(=O)N[C@H](C(=O)N[C@@H](CCCNC(N)=O)C(=O)Nc3ccc(COC(=O)NCCCCCC(=O)N(C)[C@@H](C)C(=O)O[C@H]4CC(=O)N(C)c5cc(cc(OC)c5Cl)C/C(C)=C/C=C/[C@@H](OC)[C@@]5(O)C[C@H](OC(=O)N5)[C@@H](C)[C@@H]5O[C@@]45C)cc3)C(C)C)S(=O)(=O)NC(=O)OCCOCCNS(=O)(=O)NC(=O)OCC3C4CCC#CCCC43)C(C)C)cc1)[C@]1(C)O[C@H]1[C@H](C)[C@@H]1C[C@@](O)(NC(=O)O1)[C@H](OC)/C=C/C=C(\C)C2 (some centres unmarked) [Compound 38] | 9.5 | 11.1
COc1cc2cc(c1Cl)N(C)C(=O)C[C@H](OC(=O)[C@H](C)N(C)C(=O)CCCCCNC(=O)CCOCCOCCOCCOCCOCCOCCOCCOCCOCCOCCOCCOCCOCCOCCOCCOCCOCCOCCOCCOCCOCCOCCOCCOCCNC(=O)OCC1C3CCC#CCCC31)[C@]1(C)O[C@H]1[C@H](C)[C@@H]1C[C@@](O)(NC(=O)O1)[C@H](OC)/C=C/C=C(\C)C2 (some centres unmarked) [Compound 32] | 9.7 | 9.7
